Data as given in patent publication US20200179428A1, “CYCLIC PHOSPHATE SUBSTITUTED NUCLEOSIDE DERIVATIVES AND METHODS OF USE THEREOF FOR THE TREATMENT OF VIRAL DISEASES” (priority 2016, published 2020).

Assays:
replicon cells (1b-Con1) = assay: Replicon activity assay (replicon RNA level by real-time RT-PCR, Taqman); format: cell-based; conditions: Hepatitis C virus, HCV replicon genotype 1b; read-out: EC50 (1b) Range
Description: (§1) To measure cell-based anti-HCV activity of the compounds of the present invention, replicon cells (1b-Con1) are seeded at 5000 cells/well in 96-well plates one day prior to treatment with a compound of the invention. Various concentrations of a test compound of the invention in DMSO are then added to the replicon cells, with the final concentration of DMSO at 0.5% and fetal bovine serum at 10% in the assay media. Cells are harvested three days post-dosing, and the replicon RNA level is determined using real-time RT-PCR (Taqman assay) with GAPDH RNA as endogenous control. EC50 values are calculated from experiments with 10 serial twofold dilutions of the inhibitor in triplicate. To measure cytotoxicity in replicon cells of an inhibitor, an MTS assay is performed according to the manufacturer's protocol for CellTiter 96 Aqueous One Solution Cell Proliferation Assay (Promega, Cat # G3580) three days post dosing on cells treated identically as in replicon activity assays. […] Cytotoxicity in other types of cells may be measured using the same MTS protocol.

[1] = Cytotoxicity MTS assay (CellTiter 96 Aqueous One Solution) in replicon cells; format: cell-based; conditions: HCV replicon cells (1b-Con1); EDU; read-out: CC50 (EDU) Range
Description: as §1

| Compound | EC50 (replicon cells (1b-Con1)) | CC50 at 3 days [1] |
| --- | --- | --- |
| C#C[C@]1(C)[C@@H]2O[P@@](=O)(OCC(C)(C)CC(=O)OC(C)C)OC[C@H]2O[C@H]1n1ccc(=O)[nH]c1=O [Compound 18A] | > 10 µM | > 50 µM |
| C#C[C@]1(C)[C@@H]2O[P@](=O)(OCC(C)(C)CC(=O)OC(C)C)OC[C@H]2O[C@H]1n1ccc(=O)[nH]c1=O [Compound 18B] | > 10 µM | > 50 µM |
| CC(C)OC(=O)C(C)(C)CCO[P@@]1(=O)OC[C@H]2O[C@@H](n3ccc(=O)[nH]c3=O)[C@](C)(N)[C@@H]2O1 [Compound 19A] | > 10 µM | > 50 µM |
| CC(C)OC(=O)C(C)(C)CCO[P@]1(=O)OC[C@H]2O[C@@H](n3ccc(=O)[nH]c3=O)[C@](C)(N)[C@@H]2O1 [Compound 19B] | > 10 µM | > 50 µM |
| C#C[C@]1(C)[C@@H]2O[P@@](=O)(OCCC(C)(C)C(=O)OC(C)C)OC[C@H]2O[C@H]1n1ccc(=O)[nH]c1=O [Compound 20A] | > 10 µM | > 50 µM |
| C#C[C@]1(C)[C@@H]2O[P@](=O)(OCCC(C)(C)C(=O)OC(C)C)OC[C@H]2O[C@H]1n1ccc(=O)[nH]c1=O [Compound 20B] | > 10 µM | > 50 µM |
| CC(CCO[P@@]1(=O)OC[C@H]2O[C@@H](n3ccc(=O)[nH]c3=O)[C@](C)(N)[C@@H]2O1)CC(=O)OC(C)C (stereo partly shown) [Compound 21A] | > 10 µM | > 50 µM |
| CC(CCO[P@]1(=O)OC[C@H]2O[C@@H](n3ccc(=O)[nH]c3=O)[C@](C)(N)[C@@H]2O1)CC(=O)OC(C)C (stereo partly shown) [Compound 21B] | > 10 µM | > 50 µM |
| C#C[C@]1(C)[C@@H]2O[P@@](=O)(OCC(C)CCC(=O)OC(C)C)OC[C@H]2O[C@H]1n1ccc(=O)[nH]c1=O (stereo partly shown) [Compound 22A] | > 10 µM | > 50 µM |
| C#C[C@]1(C)[C@@H]2O[P@](=O)(OCC(C)CCC(=O)OC(C)C)OC[C@H]2O[C@H]1n1ccc(=O)[nH]c1=O (stereo partly shown) [Compound 22B] | > 10 µM | > 50 µM |
| CCC(CCO[P@@]1(=O)OC[C@H]2O[C@@H](n3ccc(=O)[nH]c3=O)[C@](C)(N)[C@@H]2O1)C(=O)OC(C)C (stereo partly shown) [Compound 23A] | > 10 µM | > 50 µM |
| CCC(CCO[P@]1(=O)OC[C@H]2O[C@@H](n3ccc(=O)[nH]c3=O)[C@](C)(N)[C@@H]2O1)C(=O)OC(C)C (stereo partly shown) [Compound 23B] | > 10 µM | > 50 µM |
| CC(C)OC(=O)C(CCO[P@@]1(=O)OC[C@H]2O[C@@H](n3ccc(=O)[nH]c3=O)[C@](C)(N)[C@@H]2O1)C(C)C (stereo partly shown) [Compound 24A] | > 10 µM | > 50 µM |
| CC(C)OC(=O)C(CCO[P@]1(=O)OC[C@H]2O[C@@H](n3ccc(=O)[nH]c3=O)[C@](C)(N)[C@@H]2O1)C(C)C (stereo partly shown) [Compound 24B] | > 10 µM | > 50 µM |
| C[C@@]1(N)[C@@H]2O[P@@](=O)(OCCC3(C(=O)OC4CCCC4)CC3)OC[C@H]2O[C@H]1n1ccc(=O)[nH]c1=O [Compound 26A] | > 10 µM | > 50 µM |
| C[C@@]1(N)[C@@H]2O[P@](=O)(OCCC3(C(=O)OC4CCCC4)CC3)OC[C@H]2O[C@H]1n1ccc(=O)[nH]c1=O [Compound 26B] | > 10 µM | > 50 µM |
| CC(C)OC(=O)C1(CCO[P@@]2(=O)OC[C@H]3O[C@@H](n4ccc(=O)[nH]c4=O)[C@](C)(N)[C@@H]3O2)CC1 [Compound 27A] | > 10 µM | > 50 µM |
| CC(C)OC(=O)C1(CCO[P@]2(=O)OC[C@H]3O[C@@H](n4ccc(=O)[nH]c4=O)[C@](C)(N)[C@@H]3O2)CC1 [Compound 27B] | > 10 µM | > 50 µM |
| CCOC(=O)C1(CCO[P@@]2(=O)OC[C@H]3O[C@@H](n4ccc(=O)[nH]c4=O)[C@](C)(N)[C@@H]3O2)CC1 [Compound 28A] | > 10 µM | > 50 µM |
| CCOC(=O)C1(CCO[P@]2(=O)OC[C@H]3O[C@@H](n4ccc(=O)[nH]c4=O)[C@](C)(N)[C@@H]3O2)CC1 [Compound 28B] | > 10 µM | > 50 µM |
| C[C@@]1(N)[C@@H]2OP(=O)(OCCC3(C(=O)OC4CCCC4)CCC3)OC[C@H]2O[C@H]1n1ccc(=O)[nH]c1=O (stereo partly shown) [Compound 29A] | > 10 µM | > 50 µM |

| Compound | EC50 (replicon cells (1b-Con1)) | CC50 at 3 days [1] |
| --- | --- | --- |
| C#C[C@]1(C)[C@@H]2O[P@@](=O)(OCCC(CC)C(=O)OC3CCCC3)OC[C@H]2O[C@H]1n1ccc(=O)[nH]c1=O (stereo partly shown) [Compound 30A] | > 10 µM | > 50 µM |
| C#C[C@]1(C)[C@@H]2O[P@](=O)(OCCC(CC)C(=O)OC3CCCC3)OC[C@H]2O[C@H]1n1ccc(=O)[nH]c1=O (stereo partly shown) [Compound 30B] | > 10 µM | > 50 µM |
| C#C[C@]1(C)[C@@H]2O[P@@](=O)(OCCC(CC)C(=O)OC(C)C)OC[C@H]2O[C@H]1n1ccc(=O)[nH]c1=O (stereo partly shown) [Compound 31A] | 0.25 to 1 µM | > 50 µM |
| C#C[C@]1(C)[C@@H]2O[P@](=O)(OCCC(CC)C(=O)OC(C)C)OC[C@H]2O[C@H]1n1ccc(=O)[nH]c1=O (stereo partly shown) [Compound 31B] | > 10 µM | > 50 µM |
| C#C[C@]1(C)[C@@H]2O[P@@](=O)(OCCC(C(=O)OC(C)C)C(C)C)OC[C@H]2O[C@H]1n1ccc(=O)[nH]c1=O (stereo partly shown) [Compound 32A] | > 10 µM | > 50 µM |
| C#C[C@]1(C)[C@@H]2O[P@](=O)(OCCC(C(=O)OC(C)C)C(C)C)OC[C@H]2O[C@H]1n1ccc(=O)[nH]c1=O (stereo partly shown) [Compound 32B] | > 10 µM | > 50 µM |
| CC(C)OC(=O)C(CCO[P@@]1(=O)OC[C@H]2O[C@@H](n3ccc(=O)[nH]c3=O)[C@](C)(N)[C@@H]2O1)c1ccccc1 (stereo partly shown) [Compound 33A] | > 10 µM | > 50 µM |
| CC(C)OC(=O)C(CCO[P@]1(=O)OC[C@H]2O[C@@H](n3ccc(=O)[nH]c3=O)[C@](C)(N)[C@@H]2O1)c1ccccc1 (stereo partly shown) [Compound 33B] | > 10 µM | > 50 µM |
| CC(C)OC(=O)C(C)CCCO[P@@]1(=O)OC[C@H]2O[C@@H](n3ccc(=O)[nH]c3=O)[C@](C)(N)[C@@H]2O1 (stereo partly shown) [Compound 34A] | > 10 µM | > 50 µM |
| CC(C)OC(=O)C(C)CCCO[P@]1(=O)OC[C@H]2O[C@@H](n3ccc(=O)[nH]c3=O)[C@](C)(N)[C@@H]2O1 (stereo partly shown) [Compound 34B] | > 10 µM | > 50 µM |
| CC(C)OC(=O)C(C)CCOP1(=O)OC[C@H]2O[C@@H](n3cnc4c(N)ncnc43)[C@](C)(Cl)[C@@H]2O1 (stereo partly shown) [Compound 35A] | ≤ 0.25 µM | > 50 µM |
| CO[C@H](CCOP1(=O)OC[C@H]2O[C@@H](n3ccc(=O)[nH]c3=O)[C@](C)(Cl)[C@@H]2O1)C(=O)OC(C)C (stereo partly shown) [Compound 37A] | 0.25 to 1 µM | > 50 µM |
| CC(C)OC(=O)C(CCOP1(=O)OC[C@H]2O[C@@H](n3ccc(=O)[nH]c3=O)[C@](C)(Cl)[C@@H]2O1)C(=O)OC(C)C (stereo partly shown) [Compound 38A] | ≤ 0.25 µM | > 50 µM |
| CC(C)OC(=O)C(C)CCOP1(=O)OC[C@H]2O[C@@H](n3ccc(=O)[nH]c3=O)[C@](C)(Cl)[C@@H]2O1 (stereo partly shown) [Compound 39A] | ≤ 0.25 µM | > 50 µM |
| C#C[C@]1(C)[C@@H]2O[P@@](=O)(OC[C@H](NC(=O)OC)C(=O)OC(C)C)OC[C@H]2O[C@H]1n1ccc(=O)[nH]c1=O [Compound 40A] | > 10 µM | > 50 µM |
| C#C[C@]1(C)[C@@H]2O[P@](=O)(OC[C@H](NC(=O)OC)C(=O)OC(C)C)OC[C@H]2O[C@H]1n1ccc(=O)[nH]c1=O [Compound 40B] | > 10 µM | > 50 µM |
| COC(=O)N[C@H](CO[P@@]1(=O)OC[C@H]2O[C@@H](n3ccc(=O)[nH]c3=O)[C@](C)(C#N)[C@@H]2O1)C(=O)OC(C)C [Compound 41A] | > 10 µM | > 50 µM |
| COC(=O)N[C@H](CO[P@]1(=O)OC[C@H]2O[C@@H](n3ccc(=O)[nH]c3=O)[C@](C)(C#N)[C@@H]2O1)C(=O)OC(C)C [Compound 41B] | > 10 µM | > 50 µM |
| COC(=O)N[C@@H](CCO[P@@]1(=O)OC[C@H]2O[C@@H](n3ccc(=O)[nH]c3=O)[C@](C)(N)[C@@H]2O1)C(=O)OC(C)C [Compound 42A] | > 10 µM | > 50 µM |
| COC(=O)N[C@@H](CCO[P@]1(=O)OC[C@H]2O[C@@H](n3ccc(=O)[nH]c3=O)[C@](C)(N)[C@@H]2O1)C(=O)OC(C)C [Compound 42B] | > 10 µM | > 50 µM |
